The values that follow come from patent US20230146675A1, “PYRIMIDO[5,4-d]PYRIMIDINE DERIVATIVES AS ENT INHIBITORS FOR THE TREATMENT OF CANCERS, AND COMBINATION THEREOF WITH ADENOSINE RECEPTOR ANTAGONISTS” (ITEOS BELGIUM SA, priority 2020, published 2023).

The structures appear in SMILES notation.

The target in the assay is T1, human ENT1 (Homo sapiens, UniProt Q99808).
T1 sequence (Q99808 1-456): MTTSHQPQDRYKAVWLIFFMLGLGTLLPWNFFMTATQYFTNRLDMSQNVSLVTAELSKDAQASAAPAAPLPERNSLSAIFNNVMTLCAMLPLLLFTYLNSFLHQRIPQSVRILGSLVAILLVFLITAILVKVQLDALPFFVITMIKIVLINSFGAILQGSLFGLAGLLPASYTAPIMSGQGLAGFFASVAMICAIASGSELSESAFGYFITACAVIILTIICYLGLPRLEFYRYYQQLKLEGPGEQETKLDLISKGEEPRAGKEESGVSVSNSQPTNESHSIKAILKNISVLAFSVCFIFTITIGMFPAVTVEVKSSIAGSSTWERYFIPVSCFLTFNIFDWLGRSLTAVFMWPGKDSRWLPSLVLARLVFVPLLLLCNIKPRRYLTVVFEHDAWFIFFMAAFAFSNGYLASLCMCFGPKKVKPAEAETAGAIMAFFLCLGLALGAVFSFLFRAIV
The assay is described as follows: ENT1 binding assay (competition with Sahenta-DY647 on JAR cells). Set-up: JAR cells expressing ENT1 were bought from ATCC; host or cells: JAR cells. To be noted: binned IC50. The method, boiled down:
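JAR cells were incubated with test compounds and the fluorescent ligand Sahenta-DY647 in competition. Plates were washed twice by centrifugation (4 min, 400 rcf, 4 °C). Binding potency was derived from the final fluorescence.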
The compound `CCN(CC)c1nc(N(CCOC)CCOC)nc2c(N3CCC(OC)CC3)nc(N(CCOC)CCOC)nc12` [Compound 85, N4,N4-diethyl-N2,N2,N6,N6-tetrakis(2-methoxyethyl)-8-(4-methoxypiperidin-1-yl)pyrimido[5,4-d]pyrimidine-2,4,6-triamine] yielded an IC50 of under 100 nM.

`COCCN(CCOC)c1nc(N2CCC(OC)CC2)c2nc(N(CCOC)CCOC)nc(NCc3ccc(C#N)cc3)c2n1` [Compound 140, 4-(((2,6-bis(bis(2-methoxyethyl)amino)-8-(4-methoxypiperidin-1-yl)pyrimido[5,4-d]pyrimidin-4-yl)amino)methyl)benzonitrile]: the IC50 is 100 to 500 nM.

In turn, `COCCN(CCC(=O)NS(=O)(=O)N(C)C)c1nc(N2CCN(C)C(=O)C2)c2nc(N(CCOC)CCOC)nc(N3CCC(OC)CC3)c2n1` [Compound 334, 3-((6-(bis(2-methoxyethyl)amino)-8-(4-methoxypiperidin-1-yl)-4-(4-methyl-3-oxopiperazin-1-yl)pyrimido[5,4-d]pyrimidin-2-yl)(2-methoxyethyl)amino)-N-(N,N-dimethylsulfamoyl)propanamide] came in with an IC50 of 500 to 1000 nM.

As for `COCCN(CCOC)c1nc(N2CCC(OC)CC2)c2nc(N(CCOC)CCOC)nc(NCc3cccc(OC(F)(F)F)c3)c2n1` [Compound 143, N2,N2,N6,N6-tetrakis(2-methoxyethyl)-8-(4-methoxypiperidin-1-yl)-N4-(3-(trifluoromethoxy)benzyl)pyrimido[5,4-d]pyrimidine-2,4,6-triamine], the IC50 was under 100 nM.

`COCCN(CCOC)c1nc(N2CCS(=O)(=O)CC2)c2nc(N(CCOC)CCOC)nc(N3CCN(c4ncn(C)n4)CC3)c2n1` [Compound 217, 4-(2,6-bis(bis(2-methoxyethyl)amino)-8-(4-(1-methyl-1H-1,2,4-triazol-3-yl)piperazin-1-yl)pyrimido[5,4-d]pyrimidin-4-yl)thiomorpholine 1,1-dioxide] came in with an IC50 of 100 to 500 nM.

In turn, `COCCN(CCOC)c1nc(N2CCN(c3nc(C)no3)CC2)c2nc(N(CCOC)CCOC)nc(N3CCN(c4nc(C)no4)CC3)c2n1` [Compound 129, N2,N2,N6,N6-tetrakis(2-methoxyethyl)-4,8-bis(4-(3-methyl-1,2,4-oxadiazol-5-yl)piperazin-1-yl)pyrimido[5,4-d]pyrimidine-2,6-diamine] yielded an IC50 of 100 to 500 nM.

Compound `COCCN(CCOC)c1nc(N2CCN(c3ncn(C)n3)CC2)c2nc(N(CCOC)CCOC)nc(NCc3cccc(S(N)(=O)=O)c3)c2n1` [Compound 228, 3-(((2,6-bis(bis(2-methoxyethyl)amino)-8-(4-(1-methyl-1H-1,2,4-triazol-3-yl)piperazin-1-yl)pyrimido[5,4-d]pyrimidin-4-yl)amino)methyl)benzenesulfonamide] returned an IC50 of 100 to 500 nM.

`COCCN(CCOC)c1nc(N2CCC(OC)CC2)c2nc(N(CCOC)CCOC)nc(NCc3cccc(Cl)c3)c2n1` [Compound 141, N4-(3-chlorobenzyl)-N2,N2,N6,N6-tetrakis(2-methoxyethyl)-8-(4-methoxypiperidin-1-yl)pyrimido[5,4-d]pyrimidine-2,4,6-triamine] showed an IC50 of under 100 nM.

As to `COCCN(CCOC)c1nc(N2CC[C@@H](OC)C2)c2nc(N(CCOC)CCOC)nc(N3CCC(OC)CC3)c2n1` [Compound 107, (R)-N2,N2,N6,N6-tetrakis(2-methoxyethyl)-4-(4-methoxypiperidin-1-yl)-8-(3-methoxypyrrolidin-1-yl)pyrimido[5,4-d]pyrimidine-2,6-diamine], the IC50 was 100 to 500 nM.

As for `COCCN(CCOC)c1nc(N2CCN(C)C(=O)C2)c2nc(N(CCOC)CCOC)nc(NCC(C)C)c2n1` [Compound 215, 4-(2,6-bis(bis(2-methoxyethyl)amino)-8-(isobutylamino)pyrimido[5,4-d]pyrimidin-4-yl)-1-methylpiperazin-2-one], the IC50 was in the range of 100 to 500 nM.

Compound `COCCN(CCOC)c1nc(N2CCC(OC)CC2)c2nc(N(CCOC)CCOCCN3C(=O)c4ccccc4C3=O)nc(N3CCC(OC)CC3)c2n1` [Compound 172, 2-(2-(2-((6-(bis(2-methoxyethyl)amino)-4,8-bis(4-methoxypiperidin-1-yl)pyrimido[5,4-d]pyrimidin-2-yl)(2-methoxyethyl)amino)ethoxy)ethyl)isoindoline-1,3-dione] yielded an IC50 of 100 to 500 nM.

Compound `COCCN(CCOC)c1nc(N2CCNC(=O)C2)c2nc(N(CCOC)CCOC)nc(N3CCC(OC)CC3)c2n1` [Compound 70, 4-(2,6-bis(bis(2-methoxyethyl)amino)-8-(4-methoxypiperidin-1-yl)pyrimido[5,4-d]pyrimidin-4-yl)piperazin-2-one] registered an IC50 of 500 to 1000 nM.

As to `CCN(CCN1CCCCC1)c1nc(N2CCN(C)C(=O)C2)c2nc(N(CCOC)CCOC)nc(N3CCC(OC)CC3)c2n1` [Compound 272, 4-(6-(bis(2-methoxyethyl)amino)-2-(ethyl(2-(piperidin-1-yl)ethyl)amino)-8-(4-methoxypiperidin-1-yl)pyrimido[5,4-d]pyrimidin-4-yl)-1-methylpiperazin-2-one], the half-inhibitory concentration (IC50) was 100 to 500 nM.

As for `COCCN(CCOC)c1nc(N2CCC(OC)CC2)c2nc(N(CCOC)CCOC)nc(N3CCC(COC)CC3)c2n1` [Compound 76, N2,N2,N6,N6-tetrakis(2-methoxyethyl)-4-(4-(methoxymethyl)piperidin-1-yl)-8-(4-methoxypiperidin-1-yl)pyrimido[5,4-d]pyrimidine-2,6-diamine], the IC50 was 500 to 1000 nM.

`COCCN(CCOC)c1nc(N2CCC(OC)CC2)c2nc(N(CCOC)CCOC)nc(N(C)Cc3cccc(OC(F)(F)F)c3)c2n1` [Compound 231, N2,N2,N6,N6-tetrakis(2-methoxyethyl)-8-(4-methoxypiperidin-1-yl)-N4-methyl-N4-(3-(trifluoromethoxy)benzyl)pyrimido[5,4-d]pyrimidine-2,4,6-triamine] displayed an IC50 of 100 to 500 nM.

On to `COCCN(CCOC)c1nc(N2CCN(C)C(=O)C2)c2nc(N(CCOC)CCOC)nc(N(C)Cc3ccc(F)c(C#N)c3)c2n1` [Compound 238, 5-(((2,6-bis(bis(2-methoxyethyl)amino)-8-(4-methyl-3-oxopiperazin-1-yl)pyrimido[5,4-d]pyrimidin-4-yl)(methyl)amino)methyl)-2-fluorobenzonitrile], for which the IC50 was under 100 nM.

As to `COCCN(CCOC)c1nc(N2CCN(C)C(=O)C2)c2nc(N(CCOC)CCOC)nc(N3CCS(=O)(=O)CC3)c2n1` [Compound 188, 4-(2,6-bis(bis(2-methoxyethyl)amino)-8-(1,1-dioxidothiomorpholino)pyrimido[5,4-d]pyrimidin-4-yl)-1-methylpiperazin-2-one], the IC50 lay in the range of 100 to 500 nM.

`COCCN(CCOC)c1nc(N2CC[C@@H](F)C2)c2nc(N(CCOC)CCOC)nc(N3CCC(OC)CC3)c2n1` [Compound 103, (R)-4-(3-fluoropyrrolidin-1-yl)-N2,N2,N6,N6-tetrakis(2-methoxyethyl)-8-(4-methoxypiperidin-1-yl)pyrimido[5,4-d]pyrimidine-2,6-diamine] gave an IC50 of 100 to 500 nM.

For the compound `COCCN(CCOC)c1nc(N2CCn3nc(C)nc3C2)c2nc(N(CCO)CCO)nc(N3CCC(OC)CC3)c2n1` [Compound 323, 2,2′-((6-(bis(2-methoxyethyl)amino)-4-(4-methoxypiperidin-1-yl)-8-(2-methyl-5,6-dihydro-[1,2,4]triazolo[1,5-a]pyrazin-7(8H)-yl)pyrimido[5,4-d]pyrimidin-2-yl)azanediyl)bis(ethan-1-ol)], the IC50 is 100 to 500 nM.
